US6655379B2, “Aerosolized active agent delivery” (Nektar Therapeutics, priority 1998, dated 2003)

Legend:
[1] = human, in vivo
[2] = in vivo; cited from earlier work

Substance | bioavailabilities, comparison of flow rates [1] | times to peak concentration, comparison of flow rates [1] | therapeutic effect, comparison of flow rates (dry powder inhaled, flow rates below 17 liters per minute vs above 17 liters per minute) | lung deposition, comparison of flow rates (human, in vivo) | efficiency of absorption as compared to subcutaneous delivery [2]
Low molecular weight heparin | higher bioavailabilities | lower times to peak concentration | – | – | –
Human calcitonin: Powders containing 26.7% human calcitonin (Ciba-Geigy), spray dried with mannitol and citrate buffer | higher bioavailabilities | lower times to peak concentration | – | – | –
Albuterol sulfate | – | – | increased therapeutic effect | higher lung deposition | –
semi-synthetic human insulin: semi-synthetic human insulin delivered by nebulizer to six diabetic children (Elliot et al) | – | – | – | – | 20-25%
